# Assay results: patent publication US12161689B2, “Anti-infective formulations” (NEW MEXICO TECH UNIVERSITY RESEARCH PARK CORPORATION, priority 2018, dated 2024)
# Where a SMILES comes first, the peptide text is derived from it. Bridges are numbered along the chain shown (N, C = ends). [ ]: non-standard residue; d: D form. The star is where a group is joined. Ileψ(thiazoline)Cys = CC[C@H](C)[C@H](N)C1=N[C@H](C(=O)*)CS1; dOrn = NCCC[C@@H](N)C(=O)O
# Tested on: multi-drug resistant Burkholderia cepacia (ATCC 10856)
# Experiment: Spot on lawn, MHA plate: killing / diameter of clearance
# Type: cell-based
# Conditions: 10 μL spot, 24 to 48 hours at 37° C.
structure (smiles),measurement,setting,value
CC[C@H](C)[C@H](N)C1=N[C@H](C(=O)N[C@@H](CC(C)C)C(=O)N[C@H](CCC(=O)O)C(=O)N[C@H](C(=O)N[C@H]2CCCCNC(=O)[C@H](CC(N)=O)NC(=O)[C@@H](CC(=O)O)NC(=O)[C@H](Cc3cnc[nH]3)NC(=O)[C@@H](Cc3ccccc3)NC(=O)[C@H]([C@@H](C)CC)NC(=O)[C@@H](CCCN)NC2=O)[C@@H](C)CC)CS1 [Bacitracin] ({Ileψ(thiazoline)Cys}-L[dE]IK[dOrn]I[dF]H[dD]N; lactam 4-C),antibacterial activity,B. cepacia (ATCC 10856),−
same,antibacterial activity,Burkholderia cepacia ATCC 10856,−
